Drawing on US12479847B2 (DANA-FARBER CANCER INSTITUTE, INC., priority 2019, dated 2025), this text covers remaining binding for three compounds.

What all share (assay): KINOMEscan (ScanMAX) kinase profiling
Common to all, as to format: binding

In assay [1] the target is T1, panel of 468 kinases (Homo sapiens, UniProt P29323).
T1 construct: purchased KINOMEscan (ScanMAX) service
T1 sequence (P29323 19-1055): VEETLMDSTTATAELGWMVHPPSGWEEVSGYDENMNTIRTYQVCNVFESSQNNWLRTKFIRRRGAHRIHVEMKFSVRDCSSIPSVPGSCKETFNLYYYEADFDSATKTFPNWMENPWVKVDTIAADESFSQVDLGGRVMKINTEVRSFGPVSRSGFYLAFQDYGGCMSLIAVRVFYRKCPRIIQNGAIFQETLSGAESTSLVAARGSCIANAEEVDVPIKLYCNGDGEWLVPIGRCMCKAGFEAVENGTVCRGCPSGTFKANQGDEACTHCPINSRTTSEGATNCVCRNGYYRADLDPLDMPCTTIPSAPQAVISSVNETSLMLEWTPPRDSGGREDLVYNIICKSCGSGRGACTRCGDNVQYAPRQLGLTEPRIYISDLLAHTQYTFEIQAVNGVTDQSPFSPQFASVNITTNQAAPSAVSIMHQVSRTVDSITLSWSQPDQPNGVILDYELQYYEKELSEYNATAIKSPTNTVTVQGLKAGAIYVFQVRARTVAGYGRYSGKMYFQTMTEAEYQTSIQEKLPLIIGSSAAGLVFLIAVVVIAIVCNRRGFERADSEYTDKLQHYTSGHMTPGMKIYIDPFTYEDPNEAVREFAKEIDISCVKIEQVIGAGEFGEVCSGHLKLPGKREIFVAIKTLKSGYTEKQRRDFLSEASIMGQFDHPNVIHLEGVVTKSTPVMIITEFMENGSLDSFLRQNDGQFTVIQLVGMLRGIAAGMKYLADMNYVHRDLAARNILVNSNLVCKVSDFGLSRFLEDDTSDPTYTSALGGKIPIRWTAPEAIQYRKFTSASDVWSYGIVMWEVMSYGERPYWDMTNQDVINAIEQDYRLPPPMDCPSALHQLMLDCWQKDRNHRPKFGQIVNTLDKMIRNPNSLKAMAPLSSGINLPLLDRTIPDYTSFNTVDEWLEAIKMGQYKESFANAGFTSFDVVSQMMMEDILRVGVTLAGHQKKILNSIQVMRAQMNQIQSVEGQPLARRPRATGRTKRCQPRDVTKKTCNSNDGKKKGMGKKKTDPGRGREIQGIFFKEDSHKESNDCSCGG
The conditions noted are these: EPHB2; 1 μM; read-out: % control.

In assay [2] the target is T2, panel of 468 kinases (Homo sapiens, UniProt P36888, R834Q).
T2 construct: purchased KINOMEscan (ScanMAX) service
T2 sequence (P36888 27-993 R834Q): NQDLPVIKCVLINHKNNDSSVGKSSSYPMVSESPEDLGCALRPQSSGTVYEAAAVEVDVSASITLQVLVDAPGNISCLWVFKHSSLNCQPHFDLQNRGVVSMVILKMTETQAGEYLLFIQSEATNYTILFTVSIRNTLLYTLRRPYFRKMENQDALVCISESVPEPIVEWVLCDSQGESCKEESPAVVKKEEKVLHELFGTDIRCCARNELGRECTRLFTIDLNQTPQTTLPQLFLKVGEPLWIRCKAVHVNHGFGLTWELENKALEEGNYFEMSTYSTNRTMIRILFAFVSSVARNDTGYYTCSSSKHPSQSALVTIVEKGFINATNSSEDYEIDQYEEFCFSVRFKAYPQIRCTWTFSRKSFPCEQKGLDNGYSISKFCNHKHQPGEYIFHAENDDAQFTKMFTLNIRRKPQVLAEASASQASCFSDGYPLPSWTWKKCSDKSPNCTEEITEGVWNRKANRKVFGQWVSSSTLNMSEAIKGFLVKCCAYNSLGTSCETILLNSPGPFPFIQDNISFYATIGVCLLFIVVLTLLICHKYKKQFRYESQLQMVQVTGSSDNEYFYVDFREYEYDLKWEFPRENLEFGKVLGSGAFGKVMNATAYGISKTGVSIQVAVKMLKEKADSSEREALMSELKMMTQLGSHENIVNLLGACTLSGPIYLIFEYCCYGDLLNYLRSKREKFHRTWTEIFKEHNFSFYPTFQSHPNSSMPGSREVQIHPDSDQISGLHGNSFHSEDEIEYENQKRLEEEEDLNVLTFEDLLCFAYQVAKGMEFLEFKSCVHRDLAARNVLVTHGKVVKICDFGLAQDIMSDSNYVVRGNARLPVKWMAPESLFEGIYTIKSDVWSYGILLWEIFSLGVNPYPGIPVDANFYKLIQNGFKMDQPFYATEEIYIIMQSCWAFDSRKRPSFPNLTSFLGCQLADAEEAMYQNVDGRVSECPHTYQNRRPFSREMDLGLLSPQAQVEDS
To be noted: FLT3(R834Q); 1 μM; read-out: % control.

The target in assay [3] is T3, panel of 468 kinases (Homo sapiens, UniProt Q16566).
T3 construct: purchased KINOMEscan (ScanMAX) service
T3 sequence (Q16566 1-473): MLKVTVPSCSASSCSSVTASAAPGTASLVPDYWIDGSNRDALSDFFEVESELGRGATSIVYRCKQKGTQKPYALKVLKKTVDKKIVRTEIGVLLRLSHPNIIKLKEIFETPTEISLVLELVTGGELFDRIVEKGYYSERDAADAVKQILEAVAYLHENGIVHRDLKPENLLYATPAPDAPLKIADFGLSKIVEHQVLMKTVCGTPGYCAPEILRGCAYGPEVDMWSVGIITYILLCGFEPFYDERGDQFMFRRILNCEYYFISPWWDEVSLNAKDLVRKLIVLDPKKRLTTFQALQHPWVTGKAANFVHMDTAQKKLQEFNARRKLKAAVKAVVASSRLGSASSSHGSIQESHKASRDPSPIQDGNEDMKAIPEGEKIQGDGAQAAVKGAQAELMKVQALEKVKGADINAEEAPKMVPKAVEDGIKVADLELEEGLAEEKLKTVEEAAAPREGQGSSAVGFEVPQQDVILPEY
The conditions noted are these: CAMK4; 1 μM; read-out: % control.

Assay [4] deals with T4, panel of 468 kinases (Homo sapiens, UniProt Q16620).
T4 construct: purchased KINOMEscan (ScanMAX) service
T4 sequence (Q16620 32-822): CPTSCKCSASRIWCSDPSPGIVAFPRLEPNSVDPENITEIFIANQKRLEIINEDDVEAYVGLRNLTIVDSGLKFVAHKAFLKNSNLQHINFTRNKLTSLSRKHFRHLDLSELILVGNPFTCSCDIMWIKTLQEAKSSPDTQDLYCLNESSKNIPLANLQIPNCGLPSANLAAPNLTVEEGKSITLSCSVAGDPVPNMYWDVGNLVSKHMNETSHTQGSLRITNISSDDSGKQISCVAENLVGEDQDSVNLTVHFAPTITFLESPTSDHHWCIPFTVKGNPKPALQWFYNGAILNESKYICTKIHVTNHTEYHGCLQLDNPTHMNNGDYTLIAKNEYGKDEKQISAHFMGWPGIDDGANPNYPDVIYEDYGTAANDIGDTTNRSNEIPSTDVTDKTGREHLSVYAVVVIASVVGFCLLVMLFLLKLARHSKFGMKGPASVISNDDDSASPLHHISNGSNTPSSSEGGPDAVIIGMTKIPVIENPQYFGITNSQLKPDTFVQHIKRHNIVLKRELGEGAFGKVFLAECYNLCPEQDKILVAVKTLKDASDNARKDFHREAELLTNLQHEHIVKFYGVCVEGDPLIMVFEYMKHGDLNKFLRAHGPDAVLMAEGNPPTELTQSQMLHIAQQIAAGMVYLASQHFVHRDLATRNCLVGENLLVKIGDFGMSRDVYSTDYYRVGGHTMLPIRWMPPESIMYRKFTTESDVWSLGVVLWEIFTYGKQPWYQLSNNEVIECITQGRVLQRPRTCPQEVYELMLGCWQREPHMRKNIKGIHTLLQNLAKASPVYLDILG
To be noted: TRKB; 1 μM; read-out: % control.

In assay [5] the target is T5, panel of 468 kinases (Homo sapiens, UniProt Q9UK32).
T5 construct: purchased KINOMEscan (ScanMAX) service
T5 sequence (Q9UK32 whole entry): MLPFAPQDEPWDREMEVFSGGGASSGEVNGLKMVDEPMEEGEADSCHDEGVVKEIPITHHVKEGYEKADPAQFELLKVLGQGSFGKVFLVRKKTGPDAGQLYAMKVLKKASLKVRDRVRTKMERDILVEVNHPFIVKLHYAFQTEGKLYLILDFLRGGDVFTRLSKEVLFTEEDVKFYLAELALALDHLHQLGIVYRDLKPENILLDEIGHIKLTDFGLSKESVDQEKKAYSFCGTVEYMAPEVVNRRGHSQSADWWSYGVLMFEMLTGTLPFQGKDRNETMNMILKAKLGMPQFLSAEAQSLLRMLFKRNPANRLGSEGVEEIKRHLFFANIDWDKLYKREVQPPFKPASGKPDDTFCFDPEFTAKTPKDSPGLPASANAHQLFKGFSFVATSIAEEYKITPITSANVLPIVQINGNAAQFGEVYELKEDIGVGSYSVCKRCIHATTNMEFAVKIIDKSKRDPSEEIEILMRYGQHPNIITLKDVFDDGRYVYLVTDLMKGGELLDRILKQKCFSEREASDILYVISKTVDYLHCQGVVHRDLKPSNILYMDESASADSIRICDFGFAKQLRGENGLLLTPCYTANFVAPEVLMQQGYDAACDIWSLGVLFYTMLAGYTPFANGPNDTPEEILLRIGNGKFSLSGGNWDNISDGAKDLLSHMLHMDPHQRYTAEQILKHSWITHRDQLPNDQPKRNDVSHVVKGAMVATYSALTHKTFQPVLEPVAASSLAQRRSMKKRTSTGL
To be noted: 1 μM, read-out: % control.

Read-outs that look alike come from different tables or passages of the source.

Take `CNc1nc(Nc2ccc(C(=O)N3CCC(N4CCOCC4)CC3)c3c2OCO3)nc2[nH]cc(Cl)c12` [Compound 75, (7-((5-chloro-4-(methylamino)-7H-pyrrolo[2,3-d]pyrimidin-2-yl)amino)benzo[d][1,3]dioxol-4-yl)(4-morpholinopiperidin-1-yl)methanone]: the remaining binding at 1 µM was determined as 100% in assay [1]; 73% in assay [2]; 100% in assay [3]; 100% in assay [4]; 86% in assay [5] (RSK4(Kin.Dom.1-N-terminal)); 100% in assay [5] (RSK4(Kin.Dom.2-C-terminal)).
For `CNc1nc(Nc2ccc(P3(=O)CCN(C4CCOCC4)CC3)cc2OC)nc2[nH]cc(Cl)c12` [Compound 77, 4-(4-((5-chloro-4-(methylamino)-7H-pyrrolo[2,3-d]pyrimidin-2-yl)amino)-3-methoxyphenyl)-1-(tetrahydro-2H-pyran-4-yl)-1,4-azaphosphinane 4-oxide], the remaining binding at 1 µM in assay [1] amounted to 100%; in assay [2], 82%; in assay [3], 100%; in assay [4], 100%; in assay [5] (RSK4(Kin.Dom.1-N-terminal)), 92%; in assay [5] (RSK4(Kin.Dom.2-C-terminal)), 77%.
For `CNc1nc(Nc2ccc(S(=O)(=O)N3CCC(N4CCOCC4)CC3)cc2OC)nc2[nH]cc(Cl)c12` [Compound 12, 5-chloro-N2-(2-methoxy-4-((4-morpholinopiperidin-1-yl)sulfonyl)phenyl)-N4-methyl-7H-pyrrolo[2,3-d]pyrimidine-2,4-diamine], the remaining binding at 1 µM in assay [1] stood at 100%; in assay [2] it was 92%; in assay [3], 100%; in assay [4], 100%; in assay [5] (RSK4(Kin.Dom.1-N-terminal)), 96%; in assay [5] (RSK4(Kin.Dom.2-C-terminal)), 99%.
